Results taken from PubChem BioAssay (NCI).
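Exposure lasted 48 hours, with cells grown in 96-well plates and compounds tested at five concentrations. At the TGI there is no net growth.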

Experiments:
Assay in all cases: NCI tumour cell line growth inhibition, 48 h
[1] = tested on: M14 melanoma
[2] = tested on: TK-10 renal
[3] = tested on: RPMI-8226 leukemia
[4] = tested on: HS 578T breast
[5] = tested on: MCF7 breast
[6] = tested on: IGROV1 ovarian
[7] = tested on: 786-0 renal
[8] = tested on: A498 renal
[9] = tested on: EKVX NSCLC
[10] = tested on: UACC-62 melanoma
[11] = tested on: OVCAR-4 ovarian
[12] = tested on: HOP-62 NSCLC
[13] = tested on: MDA-N
[14] = tested on: MDA-MB-435
[15] = tested on: SF-539 CNS
[16] = tested on: HCC-2998 colon
[17] = tested on: LOX IMVI melanoma
[18] = tested on: HT29 colon
[19] = tested on: SF-295 CNS
[20] = tested on: MDA-MB-231 breast
[21] = tested on: NCI-H23 lung
[22] = tested on: SNB-19 CNS
[23] = tested on: SK-MEL-28 melanoma
[24] = tested on: CCRF-CEM leukemia
[25] = tested on: SNB-75 CNS
[26] = tested on: HL-60(TB) leukemia
[27] = tested on: NCI-H522 lung
[28] = tested on: UO-31 renal
[29] = tested on: NCI/ADR-RES ovarian
[30] = tested on: ACHN renal
[31] = tested on: T-47D breast
[32] = tested on: COLO 205 colon
[33] = tested on: UACC-257 melanoma
[34] = tested on: PC-3 prostate
[35] = tested on: OVCAR-5 ovarian
[36] = tested on: SW-620 colon
[37] = tested on: NCI-H226 lung
[38] = tested on: KM12 colon
[39] = tested on: NCI-H460 lung
[40] = tested on: U251 CNS
[41] = tested on: HCT-116 colon
[42] = tested on: MALME-3M melanoma
[43] = tested on: MOLT-4 leukemia
[44] = tested on: HCT-15 colon
[45] = tested on: SN12C renal
[46] = tested on: K-562 leukemia
[47] = tested on: HOP-92 NSCLC
[48] = tested on: DU-145 prostate
[49] = tested on: SK-MEL-5 melanoma
[50] = tested on: SR leukemia
[51] = tested on: SK-OV-3 ovarian
[52] = tested on: SF-268 CNS
[53] = tested on: OVCAR-3 ovarian
[54] = tested on: RXF 393 renal
[55] = tested on: A549 NSCLC
[56] = tested on: OVCAR-8 ovarian
[57] = tested on: CAKI-1 renal

Compound: COC(=O)Cc1cccc2c1CCC2=O
- TGI [1]: > 100 µM
- TGI [2]: > 100 µM
- TGI [3]: > 100 µM
- TGI [4]: > 100 µM
- TGI [5]: > 100 µM
- TGI [6]: > 100 µM
- TGI [7]: > 100 µM
- TGI [8]: > 100 µM
- TGI [9]: > 100 µM
- TGI [10]: > 100 µM
- TGI [11]: > 100 µM
- TGI [12]: > 100 µM
- TGI [13]: > 100 µM
- TGI [14]: > 100 µM
- TGI [15]: > 100 µM
- TGI [16]: > 100 µM
- TGI [17]: > 100 µM
- TGI [18]: > 100 µM
- TGI [19]: > 100 µM
- TGI [20]: > 100 µM
- TGI [21]: > 100 µM
- TGI [22]: > 100 µM
- TGI [23]: > 100 µM
- TGI [24]: > 100 µM
- TGI [25]: > 100 µM
- TGI [26]: > 100 µM
- TGI [27]: > 100 µM
- TGI [28]: > 100 µM
- TGI [29]: > 100 µM
- TGI [30]: > 100 µM
- TGI [31]: > 100 µM
- TGI [32]: > 100 µM
- TGI [33]: > 100 µM
- TGI [34]: > 100 µM
- TGI [35]: > 100 µM
- TGI [36]: > 100 µM
- TGI [37]: > 100 µM
- TGI [38]: > 100 µM
- TGI [39]: > 100 µM
- TGI [40]: > 100 µM
- TGI [41]: > 100 µM
- TGI [42]: > 100 µM
- TGI [43]: > 100 µM
- TGI [44]: > 100 µM
- TGI [45]: > 100 µM
- TGI [46]: > 100 µM
- TGI [47]: > 100 µM
- TGI [48]: > 100 µM
- TGI [49]: > 100 µM
- TGI [50]: > 100 µM
- TGI [51]: > 100 µM
- TGI [52]: > 100 µM
- TGI [53]: > 100 µM
- TGI [54]: > 100 µM
- TGI [55]: > 100 µM
- TGI [56]: > 100 µM

Compound: O=C(CCC(C(=O)OCc1ccccc1)C(=O)OCc1ccccc1)Nc1ccc(OCc2ccccc2)cc1
- TGI [1]: > 100 µM
- TGI [2]: > 100 µM
- TGI [4]: > 100 µM
- TGI [5]: 32.8 µM
- TGI [6]: > 100 µM
- TGI [7]: 32.2 µM
- TGI [8]: > 100 µM
- TGI [9]: > 100 µM
- TGI [10]: > 100 µM
- TGI [11]: > 100 µM
- TGI [12]: > 100 µM
- TGI [13]: > 100 µM
- TGI [14]: > 100 µM
- TGI [15]: > 100 µM
- TGI [16]: > 100 µM
- TGI [17]: > 100 µM
- TGI [18]: > 100 µM
- TGI [19]: > 100 µM
- TGI [20]: > 100 µM
- TGI [21]: > 100 µM
- TGI [22]: > 100 µM
- TGI [23]: > 100 µM
- TGI [24]: > 100 µM
- TGI [25]: > 100 µM
- TGI [26]: > 100 µM
- TGI [27]: > 100 µM
- TGI [28]: > 100 µM
- TGI [29]: > 100 µM
- TGI [30]: > 100 µM
- TGI [31]: > 100 µM
- TGI [32]: > 100 µM
- TGI [33]: > 100 µM
- TGI [34]: 47.2 µM
- TGI [35]: > 100 µM
- TGI [36]: > 100 µM
- TGI [37]: > 100 µM
- TGI [38]: > 100 µM
- TGI [39]: > 100 µM
- TGI [40]: > 100 µM
- TGI [41]: 27.3 µM
- TGI [42]: > 100 µM
- TGI [43]: > 100 µM
- TGI [44]: 79.4 µM
- TGI [45]: > 100 µM
- TGI [46]: > 100 µM
- TGI [47]: > 100 µM
- TGI [48]: > 100 µM
- TGI [57]: > 100 µM
- TGI [50]: > 100 µM
- TGI [51]: > 100 µM
- TGI [52]: > 100 µM
- TGI [53]: > 100 µM
- TGI [54]: > 100 µM
- TGI [55]: > 100 µM
- TGI [56]: 34 µM

Compound: Nc1c(Br)cc2c(c1Br)Cc1cc(Br)ccc1-2
- TGI [1]: > 100 µM
- TGI [2]: > 100 µM
- TGI [4]: > 100 µM
- TGI [5]: > 100 µM
- TGI [8]: > 100 µM
- TGI [11]: > 100 µM
- TGI [13]: > 100 µM
- TGI [14]: > 100 µM
- TGI [16]: > 100 µM
- TGI [17]: > 100 µM
- TGI [18]: > 100 µM
- TGI [19]: > 100 µM
- TGI [20]: > 100 µM
- TGI [21]: > 100 µM
- TGI [22]: > 100 µM
- TGI [23]: > 100 µM
- TGI [24]: > 100 µM
- TGI [25]: > 100 µM
- TGI [27]: > 100 µM
- TGI [28]: > 100 µM
- TGI [29]: > 100 µM
- TGI [30]: > 100 µM
- TGI [31]: > 100 µM
- TGI [32]: > 100 µM
- TGI [33]: > 100 µM
- TGI [34]: > 100 µM
- TGI [36]: > 100 µM
- TGI [37]: > 100 µM
- TGI [38]: > 100 µM
- TGI [39]: > 100 µM
- TGI [40]: > 100 µM
- TGI [41]: > 100 µM
- TGI [43]: > 100 µM
- TGI [44]: > 100 µM
- TGI [45]: > 100 µM
- TGI [46]: > 100 µM
- TGI [47]: > 100 µM
- TGI [48]: > 100 µM
- TGI [49]: > 100 µM
- TGI [50]: > 100 µM
- TGI [51]: > 100 µM
- TGI [52]: > 100 µM
- TGI [53]: > 100 µM
- TGI [54]: > 100 µM
- TGI [55]: > 100 µM
- TGI [56]: > 100 µM
